The values below come from ChEMBL document CHEMBL1145452, “In vitro structure-activity relationship and in vivo characterization of 1-(aryl)-3-(4-(amino)benzyl)urea transient receptor potential vanilloid 1 antagonists” (J Med Chem, 2007).

Converted amounts (≈) assume the structure as drawn.

Series [1] deals with Transient receptor potential cation channel subfamily V member 1 (Homo sapiens, UniProt Q8NER1). As to the kind of experiment: Antagonist activity at human TRPV1 receptor by calcium influx assay. It counts as functional.
For series [2], the system named is Liver microsomes. Nature of the series: Stability in rat liver microsomes at 0.5 uM after 30 mins. Type of series: ADME, Microsome. Particulars: 0.5 h. In general terms: Microsomes from liver hold many membrane-bound enzymes, among them those of drug oxidation.
The test system of series [3] is Liver microsomes. Nature of the series: Stability in human liver microsomes at 0.5 uM after 30 mins. It counts as ADME, Microsome. The settings on record: 0.5 h.
A short description of series [4]: Volume of distribution in rat at 10 umol/kg. It counts as ADME, organism-based. The settings on record: in vivo, read-out: Vbeta.
Series [5] concerns Rattus norvegicus. Nature of the series: Effect on CFA-induced thermal hyperalgesia in po dosed rat. It counts as functional.
Series [6] in a line: Plasma clearance in rat at 10 umol/kg. Type of series: ADME, organism-based.
A short description of series [7]: Half life in rat at 10 umol/kg. Particulars: in vivo. Type of series: ADME, organism-based.
Series [8] in a line: Cmax in rat at 10 umol/kg, po. Details: dose 10 umol/kg, route oral. Particulars: in vivo. Type of series: ADME, organism-based.
A short description of series [9]: Oral bioavailability in rat at 10 umol/kg, po. Type of series: ADME, organism-based. Particulars: in vivo.
The nature of series [10]: Oral bioavailability in dog. It counts as ADME, organism-based, Canis lupus familiaris. The settings on record: in vivo.
The nature of series [11]: Protein binding in rat plasma. Type of series: ADME, cell-free. Particulars: read-out: PPB (converted).
The target in series [12] is T1, Adenosine receptor A3 (Homo sapiens, UniProt P0DMS8).
T1 sequence (P0DMS8 whole entry): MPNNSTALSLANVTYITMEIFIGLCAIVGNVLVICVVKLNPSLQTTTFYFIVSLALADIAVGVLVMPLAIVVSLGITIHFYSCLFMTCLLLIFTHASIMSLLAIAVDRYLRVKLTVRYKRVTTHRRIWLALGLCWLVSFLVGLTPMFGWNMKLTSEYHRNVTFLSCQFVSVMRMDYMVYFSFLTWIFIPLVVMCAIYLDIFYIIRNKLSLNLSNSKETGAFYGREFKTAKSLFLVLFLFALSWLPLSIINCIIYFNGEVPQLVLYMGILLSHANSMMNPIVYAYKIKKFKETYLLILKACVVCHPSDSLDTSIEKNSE
As to the kind of experiment: Binding affinity to adenosine A3 receptor.

Series [13] deals with Translocator protein (Homo sapiens, UniProt P30536). Nature of the series: Binding affinity to peripheral benzodiazepine receptor.
A short description of series [14]: Binding affinity to sodium channel. Details: species or system Homo sapiens.
Series [15] in a line: Aqueous solubility at pH 2.0. Type of series: physicochemical.
Series [16] can be described thus: Aqueous solubility at pH 6.8. Type of series: physicochemical. The settings on record: buffer.
For series [17], the species on record is Homo sapiens. As to the kind of experiment: Protein binding in human plasma. The settings on record: read-out: PPB (converted).

Chain of Transient receptor potential cation channel subfamily V member 1 (Q8NER1 whole entry): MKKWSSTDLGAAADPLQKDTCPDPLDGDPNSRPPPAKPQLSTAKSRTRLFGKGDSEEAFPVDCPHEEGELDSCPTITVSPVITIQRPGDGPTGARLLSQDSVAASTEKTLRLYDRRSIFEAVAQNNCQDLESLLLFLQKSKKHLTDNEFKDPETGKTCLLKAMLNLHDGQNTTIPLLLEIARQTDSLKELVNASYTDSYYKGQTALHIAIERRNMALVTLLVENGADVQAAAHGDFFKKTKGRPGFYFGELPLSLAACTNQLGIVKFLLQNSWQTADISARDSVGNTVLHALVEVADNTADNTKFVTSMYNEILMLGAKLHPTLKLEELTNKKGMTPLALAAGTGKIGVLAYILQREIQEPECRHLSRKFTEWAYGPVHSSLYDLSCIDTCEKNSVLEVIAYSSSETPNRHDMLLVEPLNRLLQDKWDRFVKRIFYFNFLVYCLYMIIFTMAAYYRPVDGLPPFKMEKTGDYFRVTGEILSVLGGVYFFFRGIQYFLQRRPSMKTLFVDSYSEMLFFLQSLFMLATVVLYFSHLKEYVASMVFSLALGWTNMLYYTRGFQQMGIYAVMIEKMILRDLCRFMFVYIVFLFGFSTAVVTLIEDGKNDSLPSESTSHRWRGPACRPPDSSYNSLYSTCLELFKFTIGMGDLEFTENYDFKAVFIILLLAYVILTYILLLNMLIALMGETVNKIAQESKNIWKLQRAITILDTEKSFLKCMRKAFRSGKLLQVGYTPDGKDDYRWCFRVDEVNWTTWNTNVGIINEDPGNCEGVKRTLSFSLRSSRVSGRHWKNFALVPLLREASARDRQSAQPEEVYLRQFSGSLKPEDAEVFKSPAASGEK
Chain of Translocator protein (P30536 whole entry): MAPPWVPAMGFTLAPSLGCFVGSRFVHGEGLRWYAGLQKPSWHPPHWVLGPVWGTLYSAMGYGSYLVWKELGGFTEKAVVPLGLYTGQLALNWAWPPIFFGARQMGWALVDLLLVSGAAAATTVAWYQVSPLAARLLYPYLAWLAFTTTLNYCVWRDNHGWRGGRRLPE

The IC50 is the point on the concentration scale where inhibition reaches its midpoint. For `O=C(NCc1ccc(N2CCCCCCC2)cc1)Nc1cccc2cnccc12`, the IC50 in series [1] is 4.7 nM.

Turning to `CN(C)c1ccc(CNC(=O)Nc2cccc3cnccc23)cc1`, the IC50 in series [1] was 157 nM.

With `O=C(NCc1ccc(N2CCCCC2)cc1)Nc1cccc2cnccc12`, the IC50 in [1] was 7.3 nM.

For `O=C(NCc1cc(F)c(N2CCCCCC2)c(F)c1)Nc1cccc2[nH]ncc12`, the IC50 in series [1] was 39.3 nM.

Turning to `O=C(NCc1ccc(N2[C@@H]3CCC[C@H]2CC3)cc1)Nc1cccc2[nH]ncc12`, the IC50 in [1] was determined as 18 nM.

Consider `O=C(NCc1cc(F)c(N2[C@@H]3CC[C@H]2CC2(C3)OCCO2)cc1F)Nc1cccc2[nH]ncc12`, for which, in series [1], the IC50 amounted to 82 nM.

For the compound `O=C(NCc1ccc(N2[C@@H]3CCC[C@H]2CC3)cc1Cl)Nc1cccc2[nH]ncc12`, the IC50 in series [1] is 58.8 nM.

Consider `CC(C)(C)CCc1cc(N2[C@@H]3CCC[C@H]2CC3)ccc1CNC(=O)Nc1cccc2[nH]ncc12`, for which the half-inhibitory concentration (IC50) in series [1] was found to be 10.3 nM.

As for `O=C(NCc1ccc(N2[C@@H]3CCC[C@H]2CC3)c(F)c1F)Nc1cccc2[nH]ncc12`, the IC50 in [1] amounted to 25.5 nM.

With `O=C(NCc1ccc(N2CCCCCC2)c(C(F)(F)F)c1)Nc1cccc2cnccc12`, the IC50 in [1] amounted to 4.6 nM. Further, the results for the Stability in series [2] and in series [3] were 689 pmol/min/mg and 643 pmol/min/mg, respectively.

In the case of `Cc1cc(CNC(=O)Nc2cccc3[nH]ncc23)ccc1N1[C@@H]2CCC[C@H]1CC2`, in series [1], the IC50 was determined as 19.8 nM.

As to `O=C(NCc1ccc(N2CCCCCC2)cc1C(F)(F)F)Nc1cccc2cnccc12`, the IC50 in series [1] turned out to be 5.7 nM.

With `O=C(NCc1ccc(C(F)(F)F)cc1)Nc1cccc2cnccc12`, the IC50 in series [1] came to 2.1 nM. Besides, the Stability in [2] stood at 383 pmol/min/mg; in [3], 135 pmol/min/mg.

As for `O=C(NCc1ccc(N2CCOCC2)cc1)Nc1cccc2cnc(Cl)cc12`, the IC50 in series [1] stood at 156 nM.

For `O=C(NCc1ccc(N2[C@@H]3CCC[C@H]2CC3)cc1)Nc1cccc2cnccc12`, in series [1], the IC50 stood at 3.3 nM. In addition, the figures for the Stability in series [2] and in series [3] were 247 pmol/min/mg and 818 pmol/min/mg, respectively.

Regarding `Nc1cc2c(NC(=O)NCc3ccc(N4CCCCCC4)cc3)cccc2cn1`, the IC50 in series [1] was 9.8 nM.

The ED50 is the midpoint of the dose-response relation. As a reminder, the clearance is the volume of plasma or blood freed of the substance per unit of time. What is called half-life is the time in which the quantity being followed falls by half. High values mean slow loss, low ones fast loss. Usually Cmax stands for the maximum level reached in the sampled fluid or tissue. The bioavailability is dose-corrected exposure relative to a reference, in per cent. Lower therefore signals little systemic uptake. Usually solubility stands for the dissolved amount per volume that the medium holds. In the case of `O=C(NCc1ccc(N2[C@@H]3CCC[C@H]2CC3)c(C(F)(F)F)c1)Nc1cccc2[nH]ncc12`, the IC50 in [1] was 26.9 nM; in [12], above 5000 nM; in series [13] it was above 5000 nM; in [14], above 5000 nM. Also, the figures for the Stability in series [2] and in [3] were 315 pmol/min/mg and 445 pmol/min/mg, respectively. Also, the Vd in series [4] came out at 2.1 L/kg. In addition, in [5], the ED50 came to 20 µmol/kg. Besides, the clearance in series [6] was 16.7 mL/min/kg. The compound further gave a half-life in series [7] of 1.4 h. For the same compound, in [8], the Cmax was 240 ng/mL. Further, the bioavailability in series [9] stood at 21%; in series [10], 46%. The fraction unbound in series [11] is 0.014; in series [17], 0.03. Moreover, the figures for the solubility in [15] and in [16] were 14 µg/mL (≈ 31.6 µM) and below 0.001 µg/mL, respectively.

As for `Cc1cc(N2[C@@H]3CCC[C@H]2CC3)ccc1CNC(=O)Nc1cccc2[nH]ncc12`, in series [1], the IC50 was 29 nM.

Take `CCN1CCc2cc(CNC(=O)Nc3cccc4[nH]ncc34)ccc21`: the IC50 in [1] turned out to be 285 nM.

As for `Cn1c2ccccc2c2cc(CNC(=O)Nc3cccc4[nH]ncc34)ccc21`, in series [1], the IC50 was 902 nM.

For the compound `Cc1cc2c(NC(=O)NCc3ccc(N4Cc5ccccc5C4)c(F)c3)cccc2cn1`, the IC50 in series [1] was 7360 nM.

With `O=C(NCc1ccc(N2CCOCC2)cc1)Nc1cccc2cnccc12`, in [1], the IC50 worked out at 91 nM.

With `O=C(NCc1cc(F)c(N2CCOCC2)c(F)c1)Nc1cccc2cnccc12`, the half-inhibitory concentration (IC50) in series [1] was found to be 9.3 nM.

As to `O=C(NCc1ccc(N2CCCCCC2)cc1Cl)Nc1cccc2[nH]ncc12`, the concentration for half-maximal inhibition (IC50) in series [1] came to 190 nM.

`CC1CN(c2ccc(CNC(=O)Nc3cccc4cnccc34)cc2)CC(C)O1` (stereo not drawn): in [1], the IC50 amounted to 258 nM.

In the case of `O=C(NCc1ccc(N2CCCCCC2)c(F)c1)Nc1cccc2cnccc12`, the IC50 in series [1] worked out at 2.8 nM. Moreover, the Stability in series [2] worked out at 366 pmol/min/mg; in series [3], 1223 pmol/min/mg. The Vd in [4] came to 1.8 L/kg. The compound also registered an ED50 in [5] of 30 µmol/kg. This compound showed a clearance in series [6] of 30 mL/min/kg. For the same compound, in series [7], the half-life was 0.69 h. In series [8], this compound displayed a Cmax of 150 ng/mL. In addition, the bioavailability amounted to 10% in series [9] and 18% in series [10].

As for `CC(C)c1cc(N2[C@@H]3CCC[C@H]2CC3)ccc1CNC(=O)Nc1cccc2[nH]ncc12`, the IC50 in [1] stood at 35.3 nM.

Turning to `O=C1C[C@H]2CC[C@@H](C1)N2c1cc(F)c(CNC(=O)Nc2cccc3[nH]ncc23)cc1F`, the half-maximal inhibitory concentration (IC50) in series [1] was 157 nM.

As for `O=C(NCc1ccc(N2CCCCCC2)cc1C(F)(F)F)Nc1cccc2[nH]ncc12`, the IC50 in series [1] stood at 133 nM.

`Cc1cc2c(NC(=O)NCc3ccc(N4CCCCCC4)cc3)cccc2cn1`: the IC50 in [1] was 3.8 nM.

For `O=C(NCc1ccc(N2[C@@H]3CCC[C@H]2CC3)cc1C(F)(F)F)Nc1cccc2[nH]ncc12`, the IC50 in [1] was determined as 54.5 nM.

Consider `O=C(NCc1ccc(N2[C@@H]3CCC[C@H]2CC3)c(Br)c1)Nc1cccc2[nH]ncc12`, for which, in series [1], the IC50 is 43.2 nM.

On to `O=C(NCc1ccc(N2[C@@H]3CCC[C@H]2CC3)c(Cl)c1)Nc1cccc2[nH]ncc12`, for which, in series [1], the half-maximal inhibitory concentration (IC50) is 20.4 nM.

For `O=C(NCc1ccc(N2CCCCCC2)cc1)Nc1cccc2cnccc12`, in series [1], the IC50 was found to be 3.3 nM.

In the case of `Cn1ncc2c(NC(=O)NCc3ccc(N4[C@@H]5CCC[C@H]4CC5)cc3Cc3ccccc3)cccc21`, in series [1], the IC50 was 19 nM.

As for `O=C(NCc1ccc(N2[C@@H]3CCC[C@H]2CC3)c(F)c1)Nc1cccc2[nH]ncc12`, in [1], the IC50 amounted to 14.8 nM. The Stability in [2] is 394 pmol/min/mg; in series [3], 516 pmol/min/mg.

For `O=C(NCc1ccc(N2CCCCCC2)c(F)c1)Nc1cccc2[nH]ncc12`, in [1], the IC50 was found to be 14.2 nM.

Take `CC1CCN(c2ccc(CNC(=O)Nc3cccc4cnccc34)cc2)CC1`: the 50% inhibitory concentration (IC50) in series [1] was 9.3 nM.

For the compound `O=C(NCc1ccc(N2CCCCCC2)cc1Cl)Nc1cccc2cnccc12`, the IC50 in series [1] was determined as 5.2 nM.

As to `O=C(NCc1cc(F)c(N2[C@@H]3CCC[C@H]2CC3)c(F)c1)Nc1cccc2[nH]ncc12`, the IC50 in series [1] is 12.6 nM.
